Reference: patent publication US5733924A, “DC 107 derivatives and treatment methods” (Kyowa Hakko Kogyo Co., Ltd., priority 1995, dated 1998)
≈ marks a conversion by molar mass, not a printed value. Like-named read-outs stand apart in the source and are kept apart here.

Columns and labels:
[1] = tested on: Enterococcus faecium ATCC 10541; experiment: Antibacterial activity, agar dilution method (MIC); assay type: cell-based
Source text: (§1) The antibacterial activity as determined by the agar dilution method using a medium prepared by dissolving 3 g of Bacto-Tryptone (a product of Difco Laboratories), 3 g of a meat extract, 1 g of an yeast extract, 1 g of glucose and 16 g of agar in one liter of water (pH 7).
EF: Enterococcus faecium ATCC 10541

[2] = tested on: Bacillus subtilis No. 10707; experiment: Antibacterial activity, agar dilution method (MIC); assay type: cell-based
Source text: as §1
BS: Bacillus subtilis No. 10707

[3] = tested on: Klebsiella pneumoniae ATCC 10031; experiment: Antibacterial activity, agar dilution method (MIC); assay type: cell-based
Source text: as §1
KP: Klebsiella pneumoniae ATCC 10031

P388 Leukemia = experiment: Antitumor activity against P388 leukemia in mice (increased life span); assay type: in vivo, CDF1 mice; conditions: Mus musculus, P388, ip, 720 h; for ILS at 2 mg/kg: read-out: ILS (increased life span)
Experimental: Ascites were collected from the abdominal cavity of P388 ascites tumor-bearing cancer mice (DBA/2) on the 7th day after transplantation. A number of P388 cells in the ascites was counted, and a tumor cell floating liquid of 5×10^6 cells/ml was prepared using a physiological saline solution. Then, 0.2 ml of the solution containing 1×10^6 cells was transplanted into the abdominal cavity of CDF1 mice having a body weight of from 20 to 25 g.
The effect of the test compound was determined in terms of the ratio of average survival days of the group administered with the test compound to average survival days of the control group (non-medicated group) (i.e., an increased life span, ILS%).

[4] = tested on: Staphylococcus aureus ATCC 6538P; experiment: Antibacterial activity, agar dilution method (MIC); assay type: cell-based; conditions: for MIC: ATCC6538P
Source text: as §1
SA: Staphylococcus aureus ATCC 6538P

Escherichia coli ATCC 26 = experiment: Antibacterial activity, agar dilution method (MIC); assay type: cell-based; conditions: for MIC (minimum growth inhibitory concentration): EC: Escherichia coli ATCC 26, pH 7
Source text: as §1
EC: Escherichia coli ATCC 26

[5] = Enterococcus faecium, ATCC10541, pH 7, read-out: MIC (minimum growth inhibitory concentration), EF: Enterococcus faecium ATCC 10541
[6] = Bacillus subtilis, NO.10707, pH 7, read-out: MIC (minimum growth inhibitory concentration), BS: Bacillus subtilis No. 10707
[7] = Klebsiella pneumoniae, ATCC10031, pH 7, read-out: MIC (minimum growth inhibitory concentration)
[8] = Staphylococcus aureus, pH 7, read-out: MIC (minimum growth inhibitory concentration)
[9] = ATCC10541, EF: Enterococcus faecium ATCC 10541, pH 7, read-out: MIC (minimum growth inhibitory concentration)
[10] = BS: Bacillus subtilis No. 10707, pH 7, read-out: MIC (minimum growth inhibitory concentration)
[11] = ATCC10031, KP: Klebsiella pneumoniae ATCC 10031, agar dilution, pH 7, read-out: MIC (minimum growth inhibitory concentration)
[12] = SA: Staphylococcus aureus ATCC 6538P, agar dilution, pH 7, read-out: MIC (minimum growth inhibitory concentration)
[13] = ATCC26, EC: Escherichia coli ATCC 26, pH 7, read-out: MIC (minimum growth inhibitory concentration)
[14] = Escherichia coli, ATCC26, pH 7, read-out: MIC (minimum growth inhibitory concentration), EC: Escherichia coli ATCC 26

| MIC [3, 11] [µg/mL] | MIC (Escherichia coli ATCC 26; [13]) [µg/mL] | SMILES | MIC [1, 5] [µg/mL] | MIC [4, 8] [µg/mL] | MIC [1, 9] [µg/mL] | MIC [2, 10] [µg/mL] | MIC [4, 12] [µg/mL] | other results |
| --- | --- | --- | --- | --- | --- | --- | --- | --- |
| – | – | C/C1=C\C(OC2CCCCO2)C(=O)/C=C/C=C\c2csc(n2)C(C)N2C(=O)CC(C(C)(O)C(=O)SCc3oc(=O)oc3C)(CC1)[S+]2[O-] (single isomer, unassigned) [Compound 63] | 0.65 (≈ 0.92 µM) | 0.65 (≈ 0.92 µM) | – | – | – | MIC [2, 6]: 0.081 µg/mL (≈ 0.115 µM); MIC [3, 7]: 5.2 µg/mL (≈ 7.36 µM); ILS at 2 mg/kg (P388 Leukemia): 48%; MIC (minimum growth inhibitory concentration) (Escherichia coli ATCC 26): 21 µg/mL (≈ 29.7 µM) |
| – | – | C/C1=C\C(OC2CCCCO2)C(=O)/C=C/C=C\c2csc(n2)C(C)N2C(=O)CC(C(C)(O)C(=O)SCc3oc(=O)oc3C)(CC1)[S+]2[O-] (single isomer, unassigned) [Compound 64] | – | – | – | – | – | MIC (minimum growth inhibitory concentration) ([1]; EF: Enterococcus faecium ATCC 10541, pH 7): 1.3 µg/mL (≈ 1.84 µM); MIC (minimum growth inhibitory concentration) ([2]; BS: Bacillus subtilis No. 10707, pH 7): 0.16 µg/mL (≈ 0.226 µM); MIC (minimum growth inhibitory concentration) ([3]; KP: Klebsiella pneumoniae ATCC 10031, agar dilution, pH 7): 5.2 µg/mL (≈ 7.36 µM); MIC (minimum growth inhibitory concentration) ([4]; SA: Staphylococcus aureus ATCC 6538P, agar dilution, pH 7): 0.65 µg/mL (≈ 0.92 µM); MIC (minimum growth inhibitory concentration) (Escherichia coli ATCC 26): 5.2 µg/mL (≈ 7.36 µM) |
| 4.2 (≈ 7.21 µM) | 4.2 (≈ 7.21 µM) | CCOC(=O)OC1/C=C(\C)CCC2(CC(=O)NC(C)c3nc(cs3)/C=C\C=C\C1=O)[S+]([O-])SC(=O)C2(C)O (stereo not shown) [Compound 10] | – | – | 0.26 (≈ 0.446 µM) | 0.13 (≈ 0.223 µM) | 0.26 (≈ 0.446 µM) | – |
| – | – | C/C1=C\C(OC(=O)OCC2c3ccccc3-c3ccccc32)C(=O)/C=C/C=C\c2csc(n2)C(C)NC(=O)CC2(CC1)[S+]([O-])SC(=O)C2(C)O (stereo not shown) [Compound 15] | – | – | 0.081 (≈ 0.111 µM) | 0.041 (≈ 0.0559 µM) | 0.16 (≈ 0.218 µM) | ILS at 16 mg/kg (P388 Leukemia; 16 mg/kg, single i.p. 24 hours after transplantation, CDF1 mice, 30 days observation): 63% |
| – | – | C/C1=C\C(OC2CCCCO2)C(=O)/C=C/C=C\c2csc(n2)C(C)NC(=O)CC2(CC1)[S+]([O-])SC(=O)C2(C)O (stereo not shown) [Compound 18] | 0.16 (≈ 0.269 µM) | 0.16 (≈ 0.269 µM) | – | – | – | MIC [2, 6]: 0.041 µg/mL (≈ 0.0689 µM); MIC [3, 7]: 2.6 µg/mL (≈ 4.37 µM); MIC (Escherichia coli ATCC 26; [14]): 1.3 µg/mL (≈ 2.19 µM) |
| 10 (≈ 18.1 µM) | 42 (≈ 76 µM) | CC(=O)OC1(C)C(=O)S[S+]([O-])C12CC/C(C)=C/C(O)C(=O)/C=C/C=C\c1csc(n1)C(C)NC(=O)C2 (stereo not shown) [Compound 25] | – | – | 2.6 (≈ 4.7 µM) | 10 (≈ 18.1 µM) | 1.3 (≈ 2.35 µM) | – |
| 1 (≈ 1.8 µM) | 8.3 (≈ 15 µM) | COCOC1/C=C(\C)CCC2(CC(=O)NC(C)c3nc(cs3)/C=C\C=C\C1=O)[S+]([O-])SC(=O)C2(C)O (stereo not shown) [Compound 30] | – | – | 0.065 (≈ 0.117 µM) | 0.033 (≈ 0.0595 µM) | 0.13 (≈ 0.234 µM) | – |
| – | – | C/C1=C\C(OC(=O)c2cnc3ccccc3n2)C(=O)/C=C/C=C\c2csc(n2)C(C)N2C(=O)CC(C(C)(O)C(=O)SCc3oc(=O)oc3C)(CC1)[S+]2[O-] (stereo not shown) [Compound 52] | 0.72 (≈ 0.924 µM) | 0.72 (≈ 0.924 µM) | – | – | – | MIC [2, 6]: 2.9 µg/mL (≈ 3.72 µM); MIC [3, 7]: 23 µg/mL (≈ 29.5 µM); MIC (Escherichia coli ATCC 26; [14]): 92 µg/mL (≈ 118 µM) |
| – | – | C/C1=C\C(OC(=O)OCC(C)C)C(=O)/C=C/C=C\c2csc(n2)C(C)N2C(=O)CC(C(C)(O)C(=O)SCc3oc(=O)oc3C)(CC1)[S+]2[O-] (stereo not shown) [Compound 54] | 0.13 (≈ 0.18 µM) | 0.13 (≈ 0.18 µM) | – | – | – | ILS at 2 mg/kg (P388 Leukemia): 42%; MIC (Escherichia coli ATCC 26; [14]): 0.018 µg/mL (≈ 0.0249 µM) |
| 2.9 (≈ 4.35 µM) | 46 (≈ 69 µM) | COCOC1/C=C(\C)CCC2(C(C)(O)C(=O)SCc3oc(=O)oc3C)CC(=O)N(C(C)c3nc(cs3)/C=C\C=C\C1=O)[S+]2[O-] (stereo not shown) [Compound 58] | – | – | 0.72 (≈ 1.08 µM) | 0.72 (≈ 1.08 µM) | 0.72 (≈ 1.08 µM) | – |
| – | – | C/C1=C\C(OCOCc2ccccc2)C(=O)/C=C/C=C\c2csc(n2)C(C)N2C(=O)CC(C(C)(O)C(=O)SCc3oc(=O)oc3C)(CC1)[S+]2[O-] (stereo not shown) [Compound 61] | 0.65 (≈ 0.875 µM) | 0.65 (≈ 0.875 µM) | – | – | – | MIC [2, 6]: 0.081 µg/mL (≈ 0.109 µM); MIC (Escherichia coli ATCC 26; [14]): 2.6 µg/mL (≈ 3.5 µM) |

| SMILES | MIC [3, 11] [µg/mL] | MIC (Escherichia coli ATCC 26; [13]) [µg/mL] | MIC [1, 5] [µg/mL] | MIC [4, 8] [µg/mL] | MIC [1, 9] [µg/mL] | MIC [2, 10] [µg/mL] | MIC [4, 12] [µg/mL] | other results |
| --- | --- | --- | --- | --- | --- | --- | --- | --- |
| CC(=O)OC1/C=C(\C)CCC2(CC(=O)NC(C)c3nc(cs3)/C=C\C=C\C1=O)[S+]([O-])SC(=O)C2(C)O (stereo not shown) [Compound 1] | 17 (≈ 30.8 µM) | – | – | – | 0.52 (≈ 0.941 µM) | 0.26 (≈ 0.47 µM) | 0.52 (≈ 0.941 µM) | – |
| C/C1=C\C(OC(=O)c2ccc(F)cc2)C(=O)/C=C/C=C\c2csc(n2)C(C)NC(=O)CC2(CC1)[S+]([O-])SC(=O)C2(C)O (stereo not shown) [Compound 8] | 1.3 (≈ 2.05 µM) | 1.3 (≈ 2.05 µM) | – | – | 0.081 (≈ 0.128 µM) | 0.02 (≈ 0.0316 µM) | 0.081 (≈ 0.128 µM) | – |
| C/C1=C\C(O)C(=NOCc2ccccc2)/C=C/C=C\c2csc(n2)C(C)NC(=O)CC2(CC1)[S+]([O-])SC(=O)C2(C)O (stereo not shown) [Compound 69] | 0.23 (≈ 0.373 µM) | 1.8 (≈ 2.92 µM) | – | – | 0.028 (≈ 0.0455 µM) | 0.028 (≈ 0.0455 µM) | 0.057 (≈ 0.0926 µM) | – |
